Biological target: T1, PDE4D5 (Homo sapiens, UniProt Q08499)
T1 construct: Using Full-Length Human PDE4 Isoforms; Long Forms PDE4D5, PDE4C3, PDE4B1 and Short Form PDE4B2; made in house; cytosol fraction of cell lysate
Experiment: PDE assay, activation of PDE4D5 long form (Experiment 1)
Assay type: biochemical
Details: 100 μM test compound; mean % increase in counts over basal activity
Description: One suitable method of detecting whether or not a compound is capable of serving as an activator of a PDE4 long form is using a two-step radio-assay procedure described in Experiment 1. In summary, the method involves incubating a PDE4 long form with a test small molecule activator, together with [^3H]-labelled cAMP to assess alterations in the breakdown of cAMP to the 5′-adenosine monophosphate (5′-AMP) product. A sample of the reaction mixture from such an incubation is subsequently treated with snake venom 5′-nucleotidase to allow conversion of the nucleotide [^3H]-labelled 5′-AMP to the uncharged nucleoside [^3H]-labelled adenosine, which can be separated and quantified to assess PDE4 activity and the effect of the test compound (Thompson, W. J. and Appleman, M. M. Biochemistry 10: 311-316, 1971, with some modifications as described in: Marchmont, R. J. and Houslay, M. D. Biochem J. 187: 381-92, 1980).
Experiment 1: Measurement of Modulation of Enzyme Activity by PDE4 Long Form Activators of the Present Invention Using Full-Length Human PDE4 Isoforms; Long Forms PDE4D5, PDE4C3, PDE4B1 and Short Form PDE4B2 • (Marchmont, R. J. and Houslay, M. D. Biochem. J. 187: 381-92, 1980)
For transient transfection of exogenous PDE4 long isoforms, HEK 293 cells were transfected with pcDNA3.1 or pDEST^TM PDE4 expression vectors using Lipofectamine LTX/Plus reagent (Invitrogen) as outlined by the manufacturer.
Where stable cell lines were generated the clonal isolates were expanded to obtain cell lines that stably expressed the full-length human PDE4 long isoforms and the full length human PDE4B2 short isoform. These were called the HEK-PDE4D5, HEK-PDE4B1 and HEK-PDE4B2 cell lines, respectively.
HEK-PDE4D5 cells were seeded out in 100 mm plates and incubated at 37° C. in an atmosphere of 5% CO2, 95% air. Cell lysates were prepared using KHEM buffer [50 mM KCl, 10 mM EGTA, 50 mM HEPES (pH 7.2), 1.92 mM MgCl2].
To prepare the cell lysates, the 100 mm plates containing the cells were placed on ice and washed with ice-cold PBS (phosphate buffered saline, pH 7.4). KHEM buffer (500 μL) was added to the cells. Cells were then scraped off the plate and triturated using a needle (BD Microlance™ 0.8, 40 mm). The lysed cells were then centrifuged at 2000 rpm for 10 minutes to remove cell debris and the supernatant (cell lysate containing recombinant PDE4D5) was transferred to a fresh tube and kept on ice.
The cell lysate containing recombinant PDE4D5 was transferred into a centrifuge tube and placed into an ultracentrifuge (BECKMAN COULTER) and spun at high speed (100,000 g) for 30 minutes at 4° C. The cytosol fraction was then collected and its protein amount determined using a BCA protein assay.
PDE assays were performed in thin walled V-bottomed 96-well plates. The assays were performed at a final concentration of 10 mM Tris/5 mM MgCl2 plus PDE4D5 cell lysate cytosol fraction, containing over-expressed PDE4D5, with and without test compound. The lysate/compound mix were incubated together for 15 min at room temperature on an orbital shaker prior to addition of [^3H] cAMP (final concentration 1 μM [^3H] cAMP; Perkin Elmer) to a final volume of 50 μL per reaction. The reactions were then incubated for 10 minutes at 30° C., terminated by heating for 2 min at 95° C. and allowed to cool. Snake venom (12.5 μL of 1 mg/mL; Crotalus atrox, Sigma) was then added and the plates were agitated and incubated for a further 15 minutes at 30° C. Dowex ion exchange resin (Sigma, chloride form, 200-400 mesh; 200 μL; prepared as a 1:1 Dowex:water stock, thoroughly re-suspended and diluted 2:1 with ethanol) was then added to each well and the plates incubated for 15 min at room temperature on an orbital shaker ensuring sufficient agitation for resin suspension (550 RPM). The reaction mixture was then transferred to a 96 well filter plate (Millipore; 0.45 μm pore size) and filtered into a receiving 96-well plate to remove the dowex suspension. […]

T1 sequence (Q08499 1-745 isoform Q08499-6): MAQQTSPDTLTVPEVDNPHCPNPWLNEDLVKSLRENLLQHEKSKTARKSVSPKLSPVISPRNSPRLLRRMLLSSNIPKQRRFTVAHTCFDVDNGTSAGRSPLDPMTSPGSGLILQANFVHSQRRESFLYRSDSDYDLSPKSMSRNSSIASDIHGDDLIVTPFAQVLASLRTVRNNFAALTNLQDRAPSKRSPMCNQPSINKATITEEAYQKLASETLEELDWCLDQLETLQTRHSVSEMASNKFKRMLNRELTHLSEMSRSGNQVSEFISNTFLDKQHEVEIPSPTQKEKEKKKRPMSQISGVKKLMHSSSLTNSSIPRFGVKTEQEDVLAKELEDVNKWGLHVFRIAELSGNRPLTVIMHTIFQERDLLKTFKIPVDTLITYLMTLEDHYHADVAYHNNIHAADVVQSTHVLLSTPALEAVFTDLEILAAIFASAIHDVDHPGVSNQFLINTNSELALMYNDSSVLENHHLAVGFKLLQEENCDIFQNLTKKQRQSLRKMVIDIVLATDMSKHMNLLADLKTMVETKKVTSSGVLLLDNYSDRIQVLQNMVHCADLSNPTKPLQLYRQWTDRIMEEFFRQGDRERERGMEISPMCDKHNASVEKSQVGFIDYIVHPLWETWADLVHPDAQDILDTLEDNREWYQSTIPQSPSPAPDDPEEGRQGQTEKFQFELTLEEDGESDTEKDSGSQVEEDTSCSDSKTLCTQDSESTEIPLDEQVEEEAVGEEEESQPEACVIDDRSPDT

| activation at 100 µM | SMILES |
| --- | --- |
| 35% | O=C(N[C@@H]1CCOc2ccc(Cl)cc21)c1ccc2[nH]c(-c3cccnc3)nc2c1 [Example 11, (R)—N-(6-chlorochroman-4-yl)-2-(pyridin-3-yl)-1H-benzo[d]imidazole-5-carboxamide] |

Test system: m-IMCD3 cells
Experiment: Inhibition of PGE2-stimulated in vitro cyst formation in 3D culture of m-IMCD3 cells (Experiment 4)
Assay type: cell-based, mouse
Details: Mus musculus, mIMCD3, 144 h, 10 μM test compound, mean cyst area compared to 100% for (DMSO + PGE2) and 0% for DMSO control, read-out: % Cyst area* after incubation with 10 μM test compound
Description: HEK 293 and MDCK cells (Public Health England, Cell Culture Collections) were maintained in Dulbecco's Modified Eagle's Medium (DMEM) supplemented with 10% (v/v) fetal bovine serum (FBS) (Seralab), 2 mM L-glutamine and 100 U/ml penicillin streptomycin cocktail (ThermoFisher); termed complete media. Clonal HEK 293 cell lines were maintained in complete media supplemented with 0.6 mg/mL G418 (Enzo Life Sciences). Mouse inner medullary collecting duct (m-IMCD3) cells [American Type Culture Collection (ATCC)] were maintained in media consisting of DMEM/Hams F-12 50/50 Mix (DMEM F12; Corning) supplemented with penicillin streptomycin cocktail (100 U/ml) and FBS (10% v/v) (DMEM F12-10% FBS).
The mouse Inner Medullary Collecting Duct cell line (m-IMCD3) spontaneously forms cystic spheroids in 3D culture with a Type 1 collagen/Matrigel extracellular matrix. This process can be stimulated with agents which raise intracellular cAMP and is used as an in vitro model for the formation of cystic structures in the kidneys of patients with ADPKD.
Rat Collagen I (Fisher Scientific) is prepared on ice by neutralising with 1 M NaOH and diluting with a 2×volume of DMEM/F12+10% FBS. This is mixed 1:1.1 with ice cold Matrigel (Corning) for coating plates (coating mix), and 1:0.93 with Matrigel for cell plating (plating mix).
The assay is conducted in the wells of a 96-well plate culture dish using a total volume of 130 μL of collagen/Matrigel/DMEM F12-10% FBS suspension in growth media for each matrix plug per individual well. Initially, 30 μL of collagen/Matrigel/DMEM F12-10% FBS (coating mix) is added into the well of a 96 well plate and the collagen is set to a gel by incubating at 37° C. for at least 15 minutes. A second layer of 100 μL collagen/Matrigel suspension (plating mix) containing m-IMCD3 cells (2.75×10^6 m-IMCD3 cells per 96-well plate) is layered over the coating mix and the collagen/Matrigel/cell mix again set to a gel by incubating at 37° C. Cell cultures are maintained at 37° C. in an atmosphere of 5% CO2, 95% air.
Between 18 and 24 h after plating, test compound(s) as DMSO stock solutions [0.1% (v/v) final DMSO concentration] and PGE2 (100 nM final concentration) in DMEM F12-10% FBS are added in quadruplicate wells per condition. Media, together with the test compound and PGE2 are replenished after 2 or 3 days. After 6 days of culture z stack images of the wells are captured using the Nikon Eclipse Ti2-E microscope. Nikon General Analysis software is used to measure the following parameters in each well: the mean cyst area, the number of cysts, and the total cyst area.
PDE4 long form activators inhibited in vitro cyst formation in m-IMCD3 cells. Data are shown in FIG. 2 and Table 4 as mean cyst area (%), compared to 100% for (DMSO+PGE2) and 0% for DMSO control.

| SMILES | activity at 10 µM |
| --- | --- |
| O=C(N[C@H]1CCOc2ccccc21)c1cnc2cc(C3CCNCC3)nn2c1 [Example 82, (S)—N-(chroman-4-yl)-2-(piperidin-4-yl)pyrazolo[1,5-a]pyrimidine-6-carboxamide] | 3% |
| CCN1CCC(c2cc3ncc(C(=O)N[C@H]4CCOc5ccccc54)cn3n2)CC1 [Example 84, (S)—N-(chroman-4-yl)-2-(1-ethylpiperidin-4-yl)pyrazolo[1,5-a]pyrimidine-6-carboxamide] | 7% |
| CN1CCC(c2cc3ncc(C(=O)NC4CCCCC4)cn3n2)CC1 [Example 86, N-cyclohexyl-2-(1-methylpiperidin-4-yl)pyrazolo[1,5-a]pyrimidine-6-carboxamide] | 7% |
| CN1CCC(c2cc3ncc(C(=O)N[C@H]4CCOc5ccccc54)cn3n2)CC1 [Example 88, (S)—N-(chroman-4-yl)-2-(1-methylpiperidin-4-yl)pyrazolo[1,5-a]pyrimidine-6-carboxamide] | 15% |
| O=C(NCc1ccc(F)cc1)c1cnc2cc(C3CCNCC3)nn2c1 [Example 89, N-(4-fluorobenzyl)-2-(piperidin-4-yl)pyrazolo[1,5-a]pyrimidine-6-carboxamide] | -3% |
| Cc1c(C(=O)NC2CCC(F)(F)CC2)cnc2cc(C3CCNCC3)nn12 [Example 91, N-(4,4-difluorocyclohexyl)-7-methyl-2-(piperidin-4-yl)pyrazolo[1,5-a]pyrimidine-6-carboxamide] | 5% |
| CCN1CCC(c2cc3ncc(C(=O)NC4CCC(F)(F)CC4)c(C)n3n2)CC1 [Example 94, N-(4,4-difluorocyclohexyl)-2-(1-ethylpiperidin-4-yl)-7-methylpyrazolo[1,5-a]pyrimidine-6-carboxamide] | 13% |
| Cc1c(C(=O)N[C@H]2CCOc3ccccc32)cnc2cc(C3CCN(C)CC3)nn12 [Example 95, N-[(4S)-3,4-dihydro-2H-1-benzopyran-4-yl]-7-methyl-2-(1-methylpiperidin-4-yl)pyrazolo[1,5-a]pyrimidine-6-carboxamide] | 13% |
| Cc1c(C(=O)NC2CCC(F)(F)CC2)cnc2cc(C3CCN(C)CC3)nn12 [Example 96, N-(4,4-difluorocyclohexyl)-7-methyl-2-(1-methylpiperidin-4-yl)pyrazolo[1,5-a]pyrimidine-6-carboxamide] | 11% |
| CN1CCC(c2nc3cc(C(=O)NC4CCCC4)ccc3o2)CC1 [Example 98, N-cyclopentyl-2-(1-methylpiperidin-4-yl)benzo[d]oxazole-5-carboxamide] | -3% |
| O=C(NC1CCCC1)c1ccc2oc(N3CCNCC3)nc2c1 [Example 101, N-cyclopentyl-2-(piperazin-1-yl)benzo[d]oxazole-5-carboxamide] | 21% |
| CCN1CCN(c2nc3cc(C(=O)N[C@H]4CCOc5ccccc54)ccc3o2)CC1 [Example 102, (S)—N-(chroman-4-yl)-2-(4-ethylpiperazin-1-yl)benzo[d]oxazole-5-carboxamide] | 8% |
| CCN1CCN(c2nc3cc(C(=O)NC4CCCC4)ccc3o2)CC1 [Example 103, N-cyclopentyl-2-(4-ethylpiperazin-1-yl)benzo[d]oxazole-5-carboxamide] | -1% |
| O=C(N[C@H]1CCOc2ccccc21)c1ccc2oc(N3CCN(CCO)CC3)nc2c1 [Example 106, (S)—N-(chroman-4-yl)-2-(4-(2-hydroxyethyl)piperazin-1-yl)benzo[d]oxazole-5-carboxamide] | -3% |
| CCN1CCN(c2nc3ccc(C(=O)NC4CCCC4)cc3o2)CC1 [Example 108, N-cyclopentyl-2-(4-ethylpiperazin-1-yl)benzo[d]oxazole-6-carboxamide] | 24% |
| O=C(NC1CCC(F)(F)CC1)c1ccc2nc(N3C4CCC3CNC4)sc2n1 [Example 116, 2-(3,8-diazabicyclo[3.2.1]octan-8-yl)-N-(4,4-difluorocyclohexyl)thiazolo[5,4-b]pyridine-5-carboxamide] | -1% |
| O=C(NC1CCC(F)(F)CC1)c1cc2sc(N3C4CCC3CNC4)nc2cn1 [Example 120, 2-(3,8-diazabicyclo[3.2.1]octan-8-yl)-N-(4,4-difluorocyclohexyl)thiazolo[4,5-c]pyridine-6-carboxamide] | 29% |
| O=C(NC1CCCC1)c1cnc2cc(N3C4CCC3CNC4)sc2c1 [Example 121, 2-(3,8-diazabicyclo[3.2.1]octan-8-yl)-N-cyclopentylthieno[3,2-b]pyridine-6-carboxamide] | 3% |
